How the values were obtained:
[1] = test system: SK-MEL-5; assay: NCI DTP 60 cell line five-concentration test, melanoma panel; type: cell-based; settings: for CC50 / GI50: Homo sapiens; for CC50: SK-MEL-5, read-out: LC50 (50% lethal concentration); for GI50 / TGI (total growth inhibition): SK-MEL-5 melanoma cell line
Procedure: (§1) In our effort to develop new methodologies to synthesize bioactive compounds [11–14], we have synthesized a number of thiazole and thiazolo-androstenone derivatives. We submitted 50 of the synthesized thiazole–androstenone derivatives to the National Cancer Institute (NCI) Development Therapeutics Program (DTP) to test against 60 cancer cell lines (https://dtp.cancer.gov/). These compounds were tested for cytotoxicity at a single dose of 10 µM. […] Eight of these chimeric compounds (figure 2) were selected for further testing at five different concentrations to determine 50% growth inhibition (GI50), total growth inhibition (TGI) and 50% lethal concentration (LC50) values. […] Overall, amino-thiazole derivatives (table 1, 1–7) were more toxic to melanoma cell lines than phenyl thiazole derivatives (8). Fluoro and oxy (hydroxy and methoxy) derivatives were the potent growth inhibitors of the tested cancer cell lines. LOX IMVI cell line was the most susceptible among all the melanoma cell lines used against the tested compounds (table 1). […] Phenyl ethyl derivative (1) inhibited the growth of all the cell lines except SK-MEL-2. […] 2,4-Dimethyl substituted derivative (7) is a potent growth inhibitor of all the tested cell lines of the melanoma panel.

[2] = test system: M14; assay: as above; type: cell-based; settings: for GI50 / CC50: Homo sapiens; for GI50: M14, M14 melanoma cell line; for CC50: M14, read-out: LC50 (50% lethal concentration); for TGI (total growth inhibition): M14 melanoma cell line
Procedure: as §1

[3] = test system: LOX IMVI; assay: as above; type: cell-based; settings: for LC50 (50% lethal concentration) / GI50: Homo sapiens; for LC50 (50% lethal concentration): LOX IMVI, read-out: LC50 (50% lethal concentration); for GI50 / TGI (total growth inhibition): LOX IMVI melanoma cell line
Procedure: as §1

[4] = test system: SK-MEL-2; assay: as above; type: cell-based; settings: for LC50 (50% lethal concentration) / GI50: Homo sapiens; for LC50 (50% lethal concentration): SK-MEL-2, read-out: LC50 (50% lethal concentration); for GI50 / TGI (total growth inhibition): SK-MEL-2 melanoma cell line
Procedure: as §1

[5] = test system: MALME-3M; assay: as above; type: cell-based; settings: for CC50 / GI50: Homo sapiens; for CC50: Malme-3M, read-out: LC50 (50% lethal concentration); for GI50 / TGI (total growth inhibition): MALME-3M melanoma cell line
Procedure: as §1

[6] = test system: SK-MEL-28; assay: as above; type: cell-based; settings: for GI50 / CC50: Homo sapiens; for GI50: SK-MEL-28, SK-MEL-28 melanoma cell line; for CC50: SK-MEL-28, read-out: LC50 (50% lethal concentration); for TGI (total growth inhibition): SK-MEL-28 melanoma cell line
Procedure: as §1

[7] = test system: UACC-257; assay: as above; type: cell-based; settings: for CC50 / GI50: Homo sapiens; for CC50: UACC-257, read-out: LC50 (50% lethal concentration); for GI50 / TGI (total growth inhibition): UACC-257 melanoma cell line
Procedure: as §1

[8] = test system: MDA-MB-435; assay: as above; type: cell-based; settings: for CC50 / GI50: Homo sapiens; for CC50: MDA-MB-435, read-out: LC50 (50% lethal concentration); for GI50 / TGI (total growth inhibition): MDA-MB-435 melanoma cell line
Procedure: as §1

[9] = test system: UACC-62; assay: as above; type: cell-based; settings: for GI50 / LC50 (50% lethal concentration): Homo sapiens; for GI50: UACC-62, UACC-62 melanoma cell line; for LC50 (50% lethal concentration): UACC-62, read-out: LC50 (50% lethal concentration); for TGI (total growth inhibition): UACC-62 melanoma cell line
Procedure: as §1

[10] = Solubility in the growth media; type: physicochemical; settings: growth media of the HFF-1 test

SMILES | CC50 [1] | GI50 [1] | TGI (total growth inhibition) [1] | GI50 [2] | CC50 [2] | TGI (total growth inhibition) [2] | LC50 (50% lethal concentration) [3] | GI50 [3] | TGI (total growth inhibition) [3] | LC50 (50% lethal concentration) [4] | GI50 [4] | TGI (total growth inhibition) [4] | CC50 [5] | GI50 [5] | TGI (total growth inhibition) [5] | GI50 [6] | CC50 [6] | TGI (total growth inhibition) [6] | CC50 [7] | GI50 [7] | further results
C[C@]12CCc3nc(-c4cccc(F)c4)sc3C1=CC[C@@H]1[C@@H]2CC[C@]2(C)C(=O)CC[C@@H]12 [Compound 8] | 65.1 µM | 4.05 µM | 16.9 µM | 6.62 µM | > 100 µM | >100 µM | 6.47 µM | 1.74 µM | 3.36 µM | > 100 µM | 2.74 µM | 10.7 µM | 9.48 µM | 1.8 µM | 4.13 µM | 1.53 µM | > 100 µM | 4.07 µM | > 100 µM | 6.12 µM | TGI (total growth inhibition) [7]: >100 µM; CC50 [8]: > 100 µM; GI50 [8]: 2.97 µM; TGI (total growth inhibition) [8]: >100 µM; GI50 [9]: 1.9 µM; LC50 (50% lethal concentration) [9]: 37.3 µM; TGI (total growth inhibition) [9]: 5.70 µM; solubility in the growth media [10]: low solubility
C[C@]12CCc3nc(NCCc4ccccc4)sc3C1=CC[C@@H]1[C@@H]2CC[C@]2(C)C(=O)CC[C@@H]12 [Compound 1] | > 100 µM | 4.57 µM | 52.7 µM | 3.63 µM | > 100 µM | >100 µM | 5.91 µM | 1.7 µM | 3.17 µM | > 100 µM | 17 µM | >100 µM | > 100 µM | 2.18 µM | 6.82 µM | 3.37 µM | > 100 µM | 18.9 µM | > 100 µM | 4.92 µM | TGI (total growth inhibition) [7]: 79.8 µM; CC50 [8]: > 100 µM; GI50 [8]: 3.01 µM; TGI (total growth inhibition) [8]: >100 µM; GI50 [9]: 2.67 µM; LC50 (50% lethal concentration) [9]: > 100 µM; TGI (total growth inhibition) [9]: 10.6 µM; solubility in the growth media [10]: low solubility

— PMC8355692, “Antimelanoma activities of chimeric thiazole–androstenone derivatives” (Royal Society Open Science, 2021)
